Read-outs that look alike come from different tables or passages of the source. One block for each compound: values may come before it.
How the values were obtained:
[1] = system: EJ-28 (muscle invasive bladder) cancer cells; assay: MTT cytotoxicity assay, EJ-28; format: cell-based, human; settings: EJ-28 cells, 72 h, ± standard error, read-out: Growth Inhibition Concentration, GI50
Description: (§1) The Schiff bases and their organotin(IV) compounds were screened for in vitro cytotoxicity against a panel of 12 cancer cell lines: EJ-28 (muscle invasive bladder), RT-112 (minimum-invasive bladder), HT29 (colon), U87 and SJ-G2 (glioblastoma), MCF-7 (breast), A2780 (ovarian), H460 (lung), A431 (skin), DU145 (prostate), BE2-C (neuroblastoma), MIA (pancreatic) and one normal breast cell line (MCF-10A) using the MTT metabolic assay (Figure 6). After 72 h of incubation, a dose-dependent […] effect towards the cancer cell lines was measured at very low micromolar (µM) concentrations of the compounds. The growth inhibition concentration of the Schiff bases and their organotin(IV) compounds required to inhibit 50% cell proliferation relative to the cells that were treated with DMSO (control) are given in Table 2. The stability of these compounds was assessed in DMSO as well as in a mixture of DMSO-H2O. The absorbance obtained from UV-vis spectroscopy analysis was monitored for 72 h, and an unchanged pattern in the spectra was indicative that the compounds were stable in both the solvent systems tested.
(§2) The inhibitory effect of the synthesised compounds on the growth of bladder (EJ-28 and RT-112) cancer cells was evaluated by MTT assay. […] RT-112 and EJ-28, human bladder cancer cell lines used in this study (ATCC, Manassas, VA, USA) were cultured in RPMI-1640 (High glucose) medium supplemented with 10% fetal bovine serum containing 1% penicillin. The cells were cultured at 37 °C in a humidified atmosphere of 5% CO2 in air. Cells were seeded in 96-well plates at 6000 cells per well for 24 h, then they were treated with different concentrations of compounds for 72 h. The medium was subsequently removed and the wells were washed with 200 µL of phosphate buffer saline. Aliquots of 20 µL of 3-(4,5-dimethylthiazol-2-yl)-2,5-diphenyltetrazolium bromide (MTT) was added to each well and incubated for 4 h at 37 °C. Aliquots of 200 µL of media was then removed from each well and 200 µL of DMSO was added. Optical density (OD) was measured using an ELISA plate reader at 570 nm. Control wells (100% viability), containing media and DMSO, were included in all the experiments. All data points represented an average of triplicate assays. Cytotoxicity was expressed as CD50, i.e., the concentration that reduced the absorbance of treated cells by 50% with reference to the control (untreated cells).

[2] = system: U87 (glioblastoma) cancer cells; assay: MTT growth inhibition assay, U87; format: cell-based; settings: 72 h, ± standard error, read-out: Growth Inhibition Concentration, GI50
Description: as §1
(§3) For HT29 (colon), U87 and SJ-G2 (glioblastoma), MCF-7 (breast), A2780 (ovarian), H460 (lung), A431 (skin), Du145 (prostate), BE2-C (neuroblastoma), MIA (pancreas) cell lines and one normal breast cell line, MCF-10A (normal breast), the MTT assays were performed using the following method:
(§4) Stock solutions were prepared as follows and stored at −20 °C: Trial compounds were stored as 10 mM solutions in DMSO. All cell lines were cultured in a humidified atmosphere 5% CO2 at 37 °C. The cancer cell lines were maintained in Dulbecco’s modified Eagle’s medium (DMEM) (Trace Biosciences) supplemented with 10% foetal bovine serum, 10 mM sodium bicarbonate, penicillin (100 IU/mL), streptomycin (100 μg/mL) and glutamine (4 mM). The normal cell line, MCF-10A was cultured in DMEM:F12 (1:1) cell culture media, 5% heat inactivated horse serum, supplemented with penicillin (50 IU/mL), streptomycin (50 μg/mL), 20mM Hepes, L-glutamine (2 mM), epidermal growth factor (20 ng/mL), hydrocortisone (500 ng/mL), cholera toxin (100 ng/mL) and insulin (10 μg/mL).
(§5) Cells in logarithmic growth were transferred to 96-well plates. Cytotoxicity was determined by plating cells in duplicate in 100 μL medium at a density of 2500–4000 cells/well. On day 0 (24 h after plating), when the cells were in logarithmic growth, 100 μL medium, with or without the test agent, was added to each well. After 72 h drug exposure, growth inhibitory effects were evaluated using the MTT (3-[4,5-dimethylthiazol-2-yl]-2,5-diphenyltetrazolium bromide) assay and absorbance read at 540 nm. Percentage growth inhibition was determined at a fixed drug concentration of 25 μM. A value of 100% was indicative of complete cell growth inhibition. Those analogues showing appreciable percentage growth inhibition underwent further dose-response analysis allowing for the calculation of a GI50 value. This value is the drug concentration at which cell growth is 50% inhibited based on the difference between the optical density values on day 0 and those at the end of drug exposure.

A431 (skin) cancer cells = assay: MTT growth inhibition assay, A431; format: cell-based; settings: ± standard error, read-out: Growth Inhibition Concentration, GI50
Description: as §1, §3, §4, §5

[3] = system: HT29 (colon) cancer cells; assay: MTT growth inhibition assay, HT29; format: cell-based; settings: ± standard error, read-out: Growth Inhibition Concentration, GI50
Description: as §1, §3, §4, §5

[4] = system: A2780 (ovarian) cancer cells; assay: MTT growth inhibition assay, A2780; format: cell-based; settings: 72 h, ± standard error, read-out: Growth Inhibition Concentration, GI50
Description: as §1, §3, §4, §5

[5] = system: MIA (pancreatic) cancer cells; assay: MTT growth inhibition assay, MIA; format: cell-based; settings: 72 h, ± standard error, read-out: Growth Inhibition Concentration, GI50
Description: as §1, §3, §4, §5

[6] = system: Du145 (prostate) cancer cells; assay: MTT growth inhibition assay, Du145; format: cell-based; settings: ± standard error, read-out: Growth Inhibition Concentration, GI50
Description: as §1, §3, §4, §5

[7] = system: SJ-G2 (glioblastoma) cancer cells; assay: MTT growth inhibition assay, SJ-G2; format: cell-based; settings: MTT, 72 h, ± standard error, read-out: Growth Inhibition Concentration, GI50
Description: as §1, §3, §4, §5

[8] = system: MCF-7 (breast) cancer cells; assay: MTT growth inhibition assay, MCF-7; format: cell-based; settings: 72 h, ± standard error, read-out: Growth Inhibition Concentration, GI50
Description: as §1, §3, §4, §5

H460 (lung) cancer cells = assay: MTT growth inhibition assay, H460; format: cell-based; settings: ± standard error, read-out: Growth Inhibition Concentration, GI50
Description: as §1, §3, §4, §5

[9] = system: RT-112 (minimum-invasive bladder) cancer cells; assay: MTT cytotoxicity assay, RT-112; format: cell-based, human; settings: RT-112 cells, 72 h, ± standard error, read-out: Growth Inhibition Concentration, GI50
Description: as §1, §2

[10] = system: B-DNA (PDB ID: 1BNA) dodecamer d(CGCGAATTCGCG)2; parameters: method as in PMID 27649452; settings: comparison value for cisplatin; cited from earlier work
[11] = system: BE2-C (neuroblastoma) cancer cells; assay: MTT growth inhibition assay, BE2-C; format: cell-based; settings: 72 h, ± standard error, read-out: Growth Inhibition Concentration, GI50
Description: as §1, §3, §4, §5

[12] = system: MCF-10A (normal breast) cell line; assay: MTT growth inhibition assay, MCF10A; format: cell-based; settings: Homo sapiens, MCF-10A, MCF10A normal breast cells, 72 h, ± standard error, read-out: Growth Inhibition Concentration, GI50
Description: as §1, §3, §4, §5

SMILES: N.N.[Cl][Pt][Cl] [Cisplatin, reference compound]
GI50 [1]: 3.97 ± 0.48 µM | GI50 [2]: 4 ± 1 µM | GI50 (A431 (skin) cancer cells; 72 h): 2.4 ± 0.3 µM | GI50 ([3]; 72 h): 11 ± 2 µM | GI50 [4]: 1 ± 0.1 µM | GI50 [5]: 8 ± 1 µM | GI50 ([6]; 72 h): 1.2 ± 0.1 µM | GI50 [7]: 0.4 ± 0.1 µM | GI50 ([8]; MCF-7 cells): 6.5 ± 0.8 µM | GI50 (H460 (lung) cancer cells; 72 h): 0.9 ± 0.2 µM | GI50 [9]: 3.56 ± 0.88 µM | lowest binding energy (docking with DNA) [10]: -36.2 kJ/mol | GI50 [11]: 1.9 ± 0.2 µM

GI50 ([2]; Homo sapiens, U-87 MG): 4.3 ± 0.3 µM | melting point: 180 to 183 °C | GI50 (A431 (skin) cancer cells; Homo sapiens, A-431, 72 h): 3.8 ± 0.03 µM | GI50 ([3]; Homo sapiens, HT-29, 72 h): 3.9 ± 0.71 µM | GI50 ([4]; Homo sapiens): 3.2 ± 0.15 µM | GI50 ([5]; Pancreatic cancer cell): 4.9 ± 0.37 µM | GI50 ([6]; Homo sapiens, DU-145, 72 h): 4.1 ± 0.09 µM | GI50 [7]: 3 ± 0.09 µM | GI50 ([8]; Homo sapiens, MCF7, MCF-7 cells): 2.7 ± 0.21 µM | GI50 (H460 (lung) cancer cells; Homo sapiens, NCI-H460, 72 h): 4.3 ± 0.12 µM | GI50 ([11]; Homo sapiens, BE(2)-C): 3.1 µM
SMILES: COc1cccc(/C=N/NC(=S)SCc2ccccc2C)c1O [S2MoVaH, S-2-Methybenzyl-β-N-(2-hydroxy-3-methoxybenzylmethylene) Dithiocarbazate]
GI50 ([1]; Homo sapiens): 3.4 ± 0.47 µM | GI50 [12]: 3.1 ± 0.07 µM | GI50 ([9]; Homo sapiens): 4.6 ± 0.45 µM

From publication PMC6413231, “o-Vanillin Derived Schiff Bases and Their Organotin(IV) Compounds: Synthesis, Structural Characterisation, In-Silico Studies and Cytotoxicity” (International Journal of Molecular Sciences, 2019)
